From patent US8691864B2, “Agents useful for reducing amyloid precursor protein and treating dementia and methods of use thereof” (priority 2000, dated 2014) come the findings set out here.

Structures are written as SMILES.

The test system of one data set is secreted APP. The data set is described as follows: ELISA for secreted APP in SHSY5Y cells. In kind it is cell-based, human. Particulars: 16 hours. The method, then: (§1) An enzyme-linked immunosorbent assay was developed to detect secreted APP in SHSY5Y cells, a human neuroblastoma cell line. The purpose of the screen was to discover small molecules that inhibit APP protein synthesis in SHSY5Y cells. SHSY5Y cells were plated at 1×10^5 cells/well in […] of DMEM containing 0.5% heat inactivated FBS in 96 well tissue culture treated plates (Falcon no. 35 3072). 144 MES compounds were tested at final concentrations of […] in 0.1% DMSO. Compounds were added and the plates incubated for 16 hours at 37° C./5% CO2. Maxisorp plates (Nunc no. 437958) were coated overnight with […] capture antibody (Biosource 44-100) diluted in Ca^++ and Mg^++ free PBS. Biosource 44-100 is a mouse mAb that recognizes aa 1-100 of human APP. Plates were blocked for 30 minutes with 1 mg/mL BSA in Ca^++ and Mg^++ free PBS. Plates were washed 3× with wash buffer (Ca^++ and Mg^++ free PBS+0.01% Tween20). […] of supernatants and non-cultured medium controls were transferred from culture plates to ELISA plates. Culture plates were reserved for toxicity analysis. Supernatants were incubated for 4 hours at RT on a plate shaker. After supernatant incubation, plates were washed 3×. Primary antibody (Signet Clone 6E-10 biotin) was added at 0.3125 mg/mL and incubated overnight at 4° C. The recognition site of 6E-10 is aa 1-17 of Ab. For detection, a 1:3000 dilution of horseradish peroxidase conjugated streptavidin (Endogen no. N-100) was incubated for 30 minutes. Plates were washed 3×. Enzyme activity was assessed by incubation with […] TMB substrate solution (Moss no. TMB-US) for 20 minutes. The reaction was stopped by the addition of […] 0.18M sulfuric acid. Optical density was read at 450 nm on Wallac Victor2 plate reader. During the first incubation, toxicity was determined using MTS assay, Cell Titer96 AQ reagent (Promega no. G5430). The background values from the non-cultured medium control were subtracted from the sample values and secreted APP levels and toxicity were expressed as % vehicle control. Of the 144 MES compounds screened, 12 inhibited secreted APP as determined by ELISA. The results are depicted in FIGS. 13A-M.
(§2) Using the experimental procedure outlined above, APP secretion and toxicity studies were performed on several other non-carbamate compounds, and the results are shown in Tables 3 and 4. The compound structures are provided in Table 2 in the application, which are identified by their MES number.

The subject of the next data set is SH-SY-5Y Cells. Put plainly: MTS toxicity assay in SHSY5Y cells. Format: cell-based, human. How it is done:
as §1, §2
A general note: Formazan colour is commonly taken as a measure of viable cells.

Consider `CN1CC[C@@]2(C)c3cc(O)ccc3N(Cc3ccccc3)C12` (stereo partly drawn) [MES 9206], for which the “APP Secretion by SH-SY-5Y Cells” value with secreted APP (Dose 2 uM) came to 88.2 % vehicle control; with secreted APP (Dose 6 uM) it was 97.1 % vehicle control; with secreted APP (Dose 20 uM) it was 96.4 % vehicle control. For the same compound, the “APP Toxicity SH-SY-5Y Cells (MTS assay)” value in the data set with SH-SY-5Y Cells (Dose 2 uM) came out at 96 % vehicle control; with SH-SY-5Y Cells (Dose 6 uM), 91.85 % vehicle control; with SH-SY-5Y Cells (Dose 20 uM), 76.3 % vehicle control.
As for `COc1ccc2c(c1)[C@]1(C)CCN(Cc3ccccc3)C1N2C=O` (stereo partly drawn) [MES 9277], the “APP Secretion by SH-SY-5Y Cells” value with secreted APP (Dose 2 uM) is on record as 98.25 % vehicle control; with secreted APP (Dose 6 uM) it was 109 % vehicle control; in the data set on secreted APP (Dose 20 uM), 113.6 % vehicle control. The “APP Toxicity SH-SY-5Y Cells (MTS assay)” value in the data set with SH-SY-5Y Cells (Dose 2 uM) was 98.25 % vehicle control; in the data set with SH-SY-5Y Cells (Dose 6 uM), 98.3 % vehicle control; in the data set on SH-SY-5Y Cells (Dose 20 uM), 91.1 % vehicle control.
For `CN(C)CC[C@]1(C)C(=O)N(C)c2ccc(O)cc21` [MES 9311], the figures for the “APP Secretion by SH-SY-5Y Cells” value in the data set on secreted APP (Dose 2 uM), with secreted APP (Dose 6 uM) and in the data set with secreted APP (Dose 20 uM) were 102.45 % vehicle control, 103.05 % vehicle control and 102.7 % vehicle control, respectively. For the same compound, the “APP Toxicity SH-SY-5Y Cells (MTS assay)” value in the data set with SH-SY-5Y Cells (Dose 2 uM) came to 101.1 % vehicle control; in the data set with SH-SY-5Y Cells (Dose 6 uM) it was 101.25 % vehicle control; in the data set with SH-SY-5Y Cells (Dose 20 uM), 99.55 % vehicle control.
Regarding `COc1ccc2c(c1)[C@@]1(C)CCNC1N2C` (stereo partly drawn) [MES 9294], the “APP Secretion by SH-SY-5Y Cells” value in the data set on secreted APP (Dose 2 uM, listed as 9294) is reported as 105.25 % vehicle control; with secreted APP (Dose 6 uM, listed as 9294), 90 % vehicle control; in the data set on secreted APP (Dose 20 uM, listed as 9294) it was 111 % vehicle control. For the same compound, the “APP Toxicity SH-SY-5Y Cells (MTS assay)” value stood at 99.9 % vehicle control with SH-SY-5Y Cells (Dose 2 uM, listed as 9294); 98.3 % vehicle control in the data set on SH-SY-5Y Cells (Dose 6 uM, listed as 9294); 100.2 % vehicle control in the data set on SH-SY-5Y Cells (Dose 20 uM, listed as 9294).
Consider `COc1ccc2c(c1)[C@@](C)(CC[N+](C)(C)C)C(O)N2Cc1ccccc1.[I-]` (stereo partly drawn) [MES 9236], for which the “APP Secretion by SH-SY-5Y Cells” value with secreted APP (Dose 2 uM) is on record as 105.8 % vehicle control; in the data set with secreted APP (Dose 6 uM) it was 103.2 % vehicle control; in the data set with secreted APP (Dose 20 uM) it was 101.65 % vehicle control. The “APP Toxicity SH-SY-5Y Cells (MTS assay)” value in the data set on SH-SY-5Y Cells (Dose 2 uM) was determined as 97.6 % vehicle control; in the data set on SH-SY-5Y Cells (Dose 6 uM), 101 % vehicle control; in the data set with SH-SY-5Y Cells (Dose 20 uM), 100.05 % vehicle control.
For the compound `COc1ccc2c(c1)[C@@]1(C)CCN(C)C1N2C` (stereo partly drawn) [MES 9229], the “APP Secretion by SH-SY-5Y Cells” value in the data set on secreted APP (Dose 2 uM) was found to be 111.6 % vehicle control; in the data set with secreted APP (Dose 6 uM), 111.4 % vehicle control; in the data set on secreted APP (Dose 20 uM), 125.1 % vehicle control. Further, the “APP Toxicity SH-SY-5Y Cells (MTS assay)” value in the data set on SH-SY-5Y Cells (Dose 2 uM) is 99.97 % vehicle control; in the data set with SH-SY-5Y Cells (Dose 6 uM) it was 96.07 % vehicle control; in the data set on SH-SY-5Y Cells (Dose 20 uM), 91.47 % vehicle control.
Turning to `CC1C(=O)N(C)c2ccc(O)cc21` (stereo not drawn) [MES 9292, 1,3-Dimethyl-5-hydroxyoxindole], the “APP Secretion by SH-SY-5Y Cells” value in the data set on secreted APP (Dose 2 uM) is given as 106.15 % vehicle control; in the data set with secreted APP (Dose 6 uM), 99.55 % vehicle control; in the data set with secreted APP (Dose 20 uM), 100.15 % vehicle control. Further, the entries for the “APP Toxicity SH-SY-5Y Cells (MTS assay)” value in the data set on SH-SY-5Y Cells (Dose 2 uM), in the data set on SH-SY-5Y Cells (Dose 6 uM) and in the data set with SH-SY-5Y Cells (Dose 20 uM) were 102.85 % vehicle control, 103.75 % vehicle control and 104.9 % vehicle control, respectively.
As for `COc1ccc2c(c1)[C@]1(C)CCSC1N2C` (stereo partly drawn) [MES 9302], the “APP Secretion by SH-SY-5Y Cells” value is given as 100.35 % vehicle control with secreted APP (Dose 2 uM), 105.4 % vehicle control in the data set on secreted APP (Dose 6 uM) and 105.8 % vehicle control with secreted APP (Dose 20 uM). Further, the “APP Toxicity SH-SY-5Y Cells (MTS assay)” value with SH-SY-5Y Cells (Dose 2 uM) was found to be 100.7 % vehicle control; in the data set on SH-SY-5Y Cells (Dose 6 uM), 101.2 % vehicle control; in the data set with SH-SY-5Y Cells (Dose 20 uM), 99.05 % vehicle control.
With `COc1ccc2c(c1)[C@@]1(C)CCN(C)C1N2C` (single isomer, unassigned; (+)) [MES 9295, (+)-O-Methyleseroline], the “APP Secretion by SH-SY-5Y Cells” value in the data set with secreted APP (Dose 2 uM) was determined as 102.6 % vehicle control; in the data set with secreted APP (Dose 6 uM) it was 95.7 % vehicle control; in the data set with secreted APP (Dose 20 uM), 89.35 % vehicle control. The “APP Toxicity SH-SY-5Y Cells (MTS assay)” value in the data set with SH-SY-5Y Cells (Dose 2 uM) is given as 101.15 % vehicle control; with SH-SY-5Y Cells (Dose 6 uM) it was 100.4 % vehicle control; in the data set on SH-SY-5Y Cells (Dose 20 uM), 99.85 % vehicle control.
Consider `CN1CC[C@]2(C)c3cc(O)ccc3N(C)C12` (stereo partly drawn) [MES 9230], for which the “APP Secretion by SH-SY-5Y Cells” value in the data set on secreted APP (Dose 2 uM) is 101.25 % vehicle control; with secreted APP (Dose 6 uM), 88.8 % vehicle control; in the data set on secreted APP (Dose 20 uM), 4.4 % vehicle control. Also, the “APP Toxicity SH-SY-5Y Cells (MTS assay)” value is reported as 100.8 % vehicle control in the data set with SH-SY-5Y Cells (Dose 2 uM), 86.13 % vehicle control with SH-SY-5Y Cells (Dose 6 uM) and 13.83 % vehicle control in the data set on SH-SY-5Y Cells (Dose 20 uM).
Turning to `COc1ccc2[nH]c3c(c2c1)CCN(C)C3` [MES 9316], the “APP Secretion by SH-SY-5Y Cells” value came to 104.15 % vehicle control in the data set on secreted APP (Dose 2 uM), 98.45 % vehicle control in the data set on secreted APP (Dose 6 uM) and 102 % vehicle control with secreted APP (Dose 20 uM). The “APP Toxicity SH-SY-5Y Cells (MTS assay)” value in the data set with SH-SY-5Y Cells (Dose 2 uM) is listed as 99.15 % vehicle control; in the data set with SH-SY-5Y Cells (Dose 6 uM) it was 98.05 % vehicle control; in the data set on SH-SY-5Y Cells (Dose 20 uM), 98.75 % vehicle control.
Consider `COc1ccc2c(c1)C(C)(c1ccccc1)C(=O)N2C` (stereo not drawn) [MES 9324], for which the “APP Secretion by SH-SY-5Y Cells” value with secreted APP (Dose 2 uM) turned out to be 110.3 % vehicle control; in the data set with secreted APP (Dose 6 uM), 95.9 % vehicle control; with secreted APP (Dose 20 uM) it was 99.95 % vehicle control. Besides, the “APP Toxicity SH-SY-5Y Cells (MTS assay)” value with SH-SY-5Y Cells (Dose 2 uM) was found to be 102.15 % vehicle control; in the data set with SH-SY-5Y Cells (Dose 6 uM), 100.4 % vehicle control; in the data set with SH-SY-5Y Cells (Dose 20 uM) it was 98.65 % vehicle control.
For `COc1ccc2c(c1)C1(C)CCN(C)C1N2Cc1ccccc1` (stereo not drawn) [MES 9199], the figures for the “APP Secretion by SH-SY-5Y Cells” value with secreted APP (Dose 2 uM), in the data set with secreted APP (Dose 6 uM) and with secreted APP (Dose 20 uM) were 92.2 % vehicle control, 93.9 % vehicle control and 102.95 % vehicle control, respectively. Also, the entries for the “APP Toxicity SH-SY-5Y Cells (MTS assay)” value in the data set with SH-SY-5Y Cells (Dose 2 uM), with SH-SY-5Y Cells (Dose 6 uM) and with SH-SY-5Y Cells (Dose 20 uM) were 100.5 % vehicle control, 101.65 % vehicle control and 101.9 % vehicle control, respectively.
In the case of `COc1ccc2c(c1)C(C)C(=O)N2C` (stereo not drawn) [MES 9293], the “APP Secretion by SH-SY-5Y Cells” value was 97.8 % vehicle control in the data set with secreted APP (Dose 2 uM), 102.75 % vehicle control in the data set with secreted APP (Dose 6 uM) and 94.45 % vehicle control with secreted APP (Dose 20 uM). Moreover, the “APP Toxicity SH-SY-5Y Cells (MTS assay)” value was determined as 100.8 % vehicle control in the data set with SH-SY-5Y Cells (Dose 2 uM), 99.85 % vehicle control in the data set on SH-SY-5Y Cells (Dose 6 uM) and 101.95 % vehicle control in the data set with SH-SY-5Y Cells (Dose 20 uM).
Turning to `Clc1ccc(C2CC3CCC2N3)cn1` (stereo not drawn) [MES 9331], the “APP Secretion by SH-SY-5Y Cells” value worked out at 95.45 % vehicle control in the data set with secreted APP (Dose 2 uM), 102.1 % vehicle control in the data set on secreted APP (Dose 6 uM) and 106.7 % vehicle control with secreted APP (Dose 20 uM). The “APP Toxicity SH-SY-5Y Cells (MTS assay)” value in the data set on SH-SY-5Y Cells (Dose 2 uM) is recorded as 100.45 % vehicle control; in the data set on SH-SY-5Y Cells (Dose 6 uM), 99.99 % vehicle control; in the data set on SH-SY-5Y Cells (Dose 20 uM), 98.95 % vehicle control.
